According to patent US12295967B2, “Pharmaceutical composition for prevention or treatment of flavivirus infection” (priority 2018, dated 2025):
Where two headings read alike, the source gives them in different places. Starred links: 1 amine or outer side, 2 acyl side, 3 side chain; linkers in the order of their positions; H or OH if unused. Positions of bridges follow the written chain, without caps; N, C: chain ends. Non-standard residues stand in square brackets, D forms with d. Residues, ends and D or L forms follow the SMILES beside them. *: point of attachment. hTyr(3S-OH,4S-OH,3'-OSO3H) = N[C@H](C(=O)O)[C@H](O)[C@@H](O)c1ccc(O)c(OS(=O)(=O)O)c1; Orn(4R-OH,5R-OH) = O=C([C@H](C[C@@H](O)[C@@H](O)N[*:3])N[*:1])[*:2]; Pro(3S-OH,4S-Me) = C[C@H]1CN[C@H](C(=O)O)[C@H]1O; X1 = CCCCCOc1ccc(-c2cc(-c3ccc(C(=O)*)cc3)no2)cc1; Gln(3R-OH) = NC(=O)C[C@@H](O)[C@H](N)C(=O)O; Hyp = O=C(O)[C@@H]1C[C@@H](O)CN1

Assays:
dengue virus RdRp = target: T1, dengue virus RdRp (Dengue virus type 2, UniProt P29990); experiment: biochemical; details: dengue virus RdRp enzyme activity; read-out: IC50, inhibitory target enzyme RdRp
T1 construct: dengue virus RdRp enzyme activity
T1 sequence (P29990 2492-3391): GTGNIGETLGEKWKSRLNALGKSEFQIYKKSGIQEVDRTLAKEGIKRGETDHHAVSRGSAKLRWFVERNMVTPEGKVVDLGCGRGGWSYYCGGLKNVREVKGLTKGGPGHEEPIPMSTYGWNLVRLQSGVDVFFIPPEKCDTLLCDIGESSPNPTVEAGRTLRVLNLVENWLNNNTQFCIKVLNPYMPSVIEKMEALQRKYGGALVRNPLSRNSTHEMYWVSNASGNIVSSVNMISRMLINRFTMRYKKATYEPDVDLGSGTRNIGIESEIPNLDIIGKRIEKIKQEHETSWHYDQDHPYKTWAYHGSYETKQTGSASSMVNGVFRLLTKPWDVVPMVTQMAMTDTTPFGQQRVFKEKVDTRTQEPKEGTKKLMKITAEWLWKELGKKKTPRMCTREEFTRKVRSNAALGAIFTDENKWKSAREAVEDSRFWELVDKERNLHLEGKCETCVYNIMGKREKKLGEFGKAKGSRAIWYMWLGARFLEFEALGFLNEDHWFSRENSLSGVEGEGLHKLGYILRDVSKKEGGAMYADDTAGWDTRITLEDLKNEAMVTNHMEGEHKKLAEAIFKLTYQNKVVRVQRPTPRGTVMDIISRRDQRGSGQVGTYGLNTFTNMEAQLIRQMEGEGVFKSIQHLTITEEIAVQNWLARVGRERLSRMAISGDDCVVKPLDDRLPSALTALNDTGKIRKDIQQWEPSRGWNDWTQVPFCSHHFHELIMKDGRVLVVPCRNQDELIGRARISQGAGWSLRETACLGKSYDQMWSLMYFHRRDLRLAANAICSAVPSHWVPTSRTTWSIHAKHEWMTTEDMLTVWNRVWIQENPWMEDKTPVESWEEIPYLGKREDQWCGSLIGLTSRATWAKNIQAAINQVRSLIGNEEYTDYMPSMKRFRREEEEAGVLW

dengue virus helicase = target: T2, dengue virus helicase (Dengue virus type 2, UniProt P29990); experiment: Inhibition of dengue virus helicase activity; type: biochemical
T2 construct: dengue virus helicase activity
T2 sequence (P29990 1476-2093): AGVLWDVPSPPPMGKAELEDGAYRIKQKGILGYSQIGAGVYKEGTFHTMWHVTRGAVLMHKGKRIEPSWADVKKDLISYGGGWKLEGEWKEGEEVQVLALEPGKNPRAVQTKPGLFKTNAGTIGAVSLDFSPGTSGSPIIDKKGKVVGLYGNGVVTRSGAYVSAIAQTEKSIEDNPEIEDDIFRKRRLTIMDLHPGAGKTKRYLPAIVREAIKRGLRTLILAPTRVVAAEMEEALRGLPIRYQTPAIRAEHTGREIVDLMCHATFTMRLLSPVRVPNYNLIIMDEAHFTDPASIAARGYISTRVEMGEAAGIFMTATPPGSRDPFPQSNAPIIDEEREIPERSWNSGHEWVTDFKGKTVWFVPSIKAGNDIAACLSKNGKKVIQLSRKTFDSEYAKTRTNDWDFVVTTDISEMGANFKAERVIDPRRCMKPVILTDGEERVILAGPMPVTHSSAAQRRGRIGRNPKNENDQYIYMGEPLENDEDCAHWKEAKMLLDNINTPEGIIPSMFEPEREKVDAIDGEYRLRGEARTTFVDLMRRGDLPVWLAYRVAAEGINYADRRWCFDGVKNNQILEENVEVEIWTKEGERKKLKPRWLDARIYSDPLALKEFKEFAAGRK
Excerpt: A degree of inhibition of dengue virus helicase activity depending on the concentrations of 6 compounds was confirmed (IC50 values presented, FIG. 4).

DENV = DENV viremia reduction in mouse blood, dengue infection model (AG129 mouse); type: in vivo; details: micafungin sodium IP, miltefosine oral, FIG. 5
Method: On day 3, blood was collected from each mouse and transferred to an EDTA coated anticoagulant tube. After shaking for 10 minutes and gently mixing, 20 μl of each sample was analyzed by whole blood count using HEMAVET 950FS (Drew Scientific). The measured value of each factor was semi-quantified relative to that of the uninfected control. Plasma was isolated by centrifugation at 8000 g and 4° C. for 15 minutes in order to analyze cytokine hyperemia and expression changes. Plasma virus titer (viremia) and viral RNA expression in whole blood were analyzed by quantitative real-time PCR (qRT-PCR).
For target gene amplification, each primer was designed taking into account overlap between two exons of the target gene having a GC content of less than 50% and an expected amplicon size of about 100 bps. For quantification of viral RNA, quantitative real time PCR (qRT-PCR) was performed. Each reaction was performed in 20 μL volume using SYBR green master mix. Quantstudio 3™ (Applied Biosystems Inc., USA) was used for the present study in two-stage amplification process. […]
Virus in plasma was calculated according to an equation of standard curve. […] For cell-based group and mouse organ samples (including whole blood), semi-quantitative viral RNA was analyzed for GAPDH as an endogenous control. […]

[1] = dengue virus helicase activity, read-out: IC50, inhibitory target enzyme Helicase

| Compound | IC50 (dengue virus RdRp) [µM] | other results |
| --- | --- | --- |
| CCN[C@@H]1C[C@H](N)[C@@H](O[C@H]2OC(CN)=CC[C@H]2N)[C@H](O)[C@H]1O[C@H]1OC[C@](C)(O)[C@H](NC)[C@H]1O [Netimicin] | 2.9 |  |
| Bleomycin |  | IC50 (dengue virus helicase; [1]): 1.4 µM |
| CN1CCN(CCCN2c3ccccc3Sc3ccc(C(F)(F)F)cc32)CC1 [Trifluoperazine] | 22.1 |  |
| Gentamicin Sulfate | 2.3 |  |
| O=C1Nc2ccc(Cl)cc2[C@@](C#CC2CC2)(C(F)(F)F)O1 [Efavirenz] |  | IC50 (dengue virus helicase): 38.5 µM |
| [NH2][Pt]1([NH2])[O]CC(=O)[O]1 [Nedaplatin] | 86.4 |  |
| CC(=O)OCC1=C(C(=O)O)N2C(=O)[C@@H](NC(=O)Cc3cccs3)[C@H]2SC1 [Cephalothin] |  | IC50 (dengue virus helicase): 26 µM |
| CCCCCOc1ccc(-c2cc(-c3ccc(C(=O)N[C@H]4C[C@@H](O)[C@@H](O)NC(=O)[C@@H]5[C@@H](O)[C@@H](C)CN5C(=O)[C@H]([C@H](O)CC(N)=O)NC(=O)[C@H]([C@H](O)[C@@H](O)c5ccc(O)c(OS(=O)(=O)O)c5)NC(=O)[C@@H]5C[C@@H](O)CN5C(=O)[C@H]([C@@H](C)O)NC4=O)cc3)no2)cc1 [Micafungin] (X1-[Orn(4R-OH,5R-OH)]T[Hyp][hTyr(3S-OH,4S-OH,3'-OSO3H)][Gln(3R-OH)][Pro(3S-OH,4S-Me)]; lactam 1-C) |  | IC50 (dengue virus helicase): 5 µM; dengue viremia (DENV): significantly reduced |
| CCCCCCCCCCCCCCCCOP(=O)([O-])OCC[N+](C)(C)C [Miltefosine] |  | IC50 (dengue virus helicase; [1]): 17.5 µM; dengue viremia (DENV): significantly reduced |
| C[C@@H]1[C@H](O)[C@@H](C)/C=C/C=C/CC/C=C/C=C/C=C/C=C/C(O[C@H]2O[C@H](C)[C@@H](O)[C@H](N)[C@@H]2O)CC2O[C@](O)(CC(O)C(O)CCC(O)CC(O)CC(O)CC(=O)O[C@H]1C)CC(O)C2C(=O)O (stereo partly shown) [Nystatin] |  | IC50 (dengue virus helicase; [1]): 13.1 µM |
| NCC[C@H](O)C(=O)N[C@@H]1C[C@H](N)[C@@H](O[C@H]2O[C@H](CN)[C@@H](O)[C@H](O)[C@H]2O)[C@H](O)[C@H]1O[C@H]1O[C@H](CO)[C@@H](O)[C@H](N)[C@H]1O [Amikacin] | 24.3 |  |
| CN[C@@H]1[C@H](O[C@H]2[C@H](O[C@H]3[C@H](O)[C@@H](O)[C@H](NC(=N)N)[C@@H](O)[C@@H]3NC(=N)N)O[C@@H](C)[C@]2(O)CO)O[C@@H](CO)[C@H](O)[C@H]1O [Dihydrostreptomycin] | 18.4 |  |
| Capreomycin | 5.7 |  |
| NC[C@@H]1O[C@H](O[C@H]2[C@@H](O)[C@H](O[C@@H]3[C@@H](O)[C@H](N)C[C@H](N)[C@H]3O[C@H]3O[C@H](CO)[C@@H](O)[C@H](O)[C@H]3N)O[C@@H]2CO)[C@H](N)[C@@H](O)[C@@H]1O [Paromomycin] | 4.5 |  |
| CN(C)Cc1ccc(S(=O)(=O)n2ccc(/C=C/C(=O)NO)c2)cc1 [Resminostat] | 64.5 |  |
| NC[C@H]1O[C@H](O[C@H]2[C@H](O)[C@@H](O[C@H]3O[C@H](CO)[C@@H](O)[C@H](N)[C@H]3O)[C@H](N)C[C@@H]2N)[C@H](N)C[C@@H]1O [Tobramycin] | 3 |  |
| CCN(CCO)CCCC(C)Nc1ccnc2cc(Cl)ccc12 (stereo not shown) [Hydroxychloroquine] | 96 |  |
